# Data taken from PMC12491715 (Acta Pharmaceutica Sinica. B, 2025).
# System: caspase-3 activity in SH-SY5Y cells
# Assay: Caspase-3 activity in lysates of Aβ1–42-treated cells
# Assay type: cell-based, human
# Conditions: 5 μmol/L compound, 5 μmol/L fibrillar Aβ1–42, 24 h
# Procedure: Cell culture and treatments The human neuroblastoma SH-SY5Y cell line was purchased from American Type Culture Collection (Manassas, VA, USA). Cells were cultured in Advanced Dulbecco’s modified Eagle’s medium (Gibco, Thermo Fisher Scientific, Waltham, MA, USA) supplemented with 10% fetal bovine serum (FBS, Gibco), 2 mmol/L L-glutamine, 50 U/mL penicillin and 50 μg/mL streptomycin (Sigma, St. Louis, MO, USA) in a humidified atmosphere of 95% air and 5% CO2 at 37 °C, and grown to 80% confluence. Prior to cell treatment, complete medium was replaced with serum-reduced medium (i.e., with 2% FBS). Compounds were prepared as a stock solution of 50 mmol/L in DMSO.
# Caspase-3 activity and Western blot analysis The activity of caspases-3 was determined in total cell lysates of the SH-SY5Y cells treated as described. […] Following cell treatment for 24 h, cell lysates were prepared, and the caspase-3 activity was assessed using the fluorescent peptide substrate N-acetyl-L-α-aspartyl-L-α-glutamyl-L-valyl-N-[2-oxo-4-(trifluoromethyl)-2H-1-benzopyran-7-yl]-L-α-asparagine (Ac-DEVD-AFC; Bachem). […] Immediately after the addition of the substrate, fluorescence was monitored continuously for 30 min at an excitation wavelength of 405 nm and an emission wavelength of 535 nm using a Tecan Safire[2] fluorescence microplate reader. […]
compound,measurement,value
"CCN(CC)C(=O)n1cnc(C2(CC)Cc3ccccc3C2)c1 [Compound 8, N,N-Diethyl-4-(2-ethylindan-2-yl)-1H-imidazole-1-carboxamide]",caspase-3 activity after Aβ1–42 treatment,significant reduction
